Laboratory results: patent US20060258685A1, “Substituted pyrazolopyrimidines, methods for the production thereof, use of the same for controlling pathogenic fungi, and agents containing said compounds” (priority 2003, published 2006)

System: Sphaerotheca fuliginea
Experiment: Activity against mildew on cucumber leaves caused by Sphaerotheca fuliginea, protective application
Format: in vivo
Details: 250 ppm active compound, sprayed to runoff, cucumber seedlings, assessed after 7 days, untreated plants 90% infected
Protocol: The active compounds were separately prepared as a stock solution of 0.25% by weight of active compound in acetone or DMSO. 1% by weight of emulsifier Uniperol® EL (wetting agent having emulsifying and dispersing action based on ethoxylated alkylphenols) was added to this solution, and the solution was diluted with water to the desired concentration. Leaves of potted cucumber seedlings of the cultivar “Chinese snake” were, at the cotyledon stage, sprayed to runoff point with an aqueous suspension having the concentration of active compound stated below. 20 hours after the spray coating had dried on, the plants were inoculated with an aqueous spore suspension of mildew of cucumber (Sphaerotheca fuliginea). The plants were then cultivated in a greenhouse at temperatures between 20 and 24° C. and 60 to 80% relative atmospheric humidity for 7 days. The extent of the mildew development was then determined visually in % infection of the cotyledon area.

`CC1CCN(c2c(-c3c(F)cc(F)cc3F)c(Cl)nc3c(Cl)cnn23)CC1` [III-1, 3,5-Dichloro-7-(4-methylpiperidin-1-yl)-6-(2,4,6-trifluorophenyl)-pyrazolo[1,5-a]pyrimidine] was tested, and the “extent of the mildew development, determined visually in % infection of the cotyledon area” value was “no infection”.
